Laboratory results taken from ChEMBL document CHEMBL4699482, “Synthesis and SAR of a series of mGlu NAMs based on an ethyl-8-methoxy-4-(4-phenylpiperazin-1-yl)quinoline carboxylate core” (Bioorg Med Chem Lett, 2020).

How the values were obtained:
[1] = target: Metabotropic glutamate receptor 7 (Rattus norvegicus, UniProt P35400); experiment: (§1) Negative allosteric modulation of rat mGlu7 receptor expressed in HEK cells co-expressing Galpha15 assessed as reduction in calcium mobilization incubated for 142 secs prior to glutamate addition and after 120 secs treated with L-AP4 and measured after 40 secs by Fluo-4 AM dye based fluorescence assay; format: functional, cell-based
[2] = target: Metabotropic glutamate receptor 7 (Rattus norvegicus) (UniProt P35400); experiment: as §1, with “assessed as minimum L-AP4 response by measuring reduction in” for “assessed as reduction in”, “fluorescence assay relative to L-AP4” for “fluorescence assay”; format: functional, cell-based; set-up: scale not given: the % may be the effect or the level left; conditions: time 302.0 sec
[3] = Fraction unbound in mouse plasma at 5 uM incubated for 4 hrs by equilibrium dialysis method; format: ADME, cell-free
[4] = Fraction unbound in mouse brain homogenate at 5 uM incubated for 6 hrs by equilibrium dialysis method; format: ADME, tissue-based
[5] = Fraction unbound in rat brain homogenate at 5 uM incubated for 6 hrs by equilibrium dialysis method; format: ADME, tissue-based
[6] = Fraction unbound in rat plasma at 5 uM incubated for 4 hrs by equilibrium dialysis method; format: ADME, cell-free
[7] = target: Metabotropic glutamate receptor 8 (Homo sapiens, UniProt O00222); experiment: Negative allosteric modulation of mGlu8 receptor (unknown origin)
[8] = Fraction unbound in human plasma at 5 uM incubated for 4 hrs by equilibrium dialysis method; format: ADME, cell-free
[9] = target: Metabotropic glutamate receptor 4 (Homo sapiens, UniProt Q14833); experiment: Negative allosteric modulation of mGlu4 receptor (unknown origin)
[10] = filed as negative allosteric modulator

Sequence of Metabotropic glutamate receptor 7 (P35400 whole entry): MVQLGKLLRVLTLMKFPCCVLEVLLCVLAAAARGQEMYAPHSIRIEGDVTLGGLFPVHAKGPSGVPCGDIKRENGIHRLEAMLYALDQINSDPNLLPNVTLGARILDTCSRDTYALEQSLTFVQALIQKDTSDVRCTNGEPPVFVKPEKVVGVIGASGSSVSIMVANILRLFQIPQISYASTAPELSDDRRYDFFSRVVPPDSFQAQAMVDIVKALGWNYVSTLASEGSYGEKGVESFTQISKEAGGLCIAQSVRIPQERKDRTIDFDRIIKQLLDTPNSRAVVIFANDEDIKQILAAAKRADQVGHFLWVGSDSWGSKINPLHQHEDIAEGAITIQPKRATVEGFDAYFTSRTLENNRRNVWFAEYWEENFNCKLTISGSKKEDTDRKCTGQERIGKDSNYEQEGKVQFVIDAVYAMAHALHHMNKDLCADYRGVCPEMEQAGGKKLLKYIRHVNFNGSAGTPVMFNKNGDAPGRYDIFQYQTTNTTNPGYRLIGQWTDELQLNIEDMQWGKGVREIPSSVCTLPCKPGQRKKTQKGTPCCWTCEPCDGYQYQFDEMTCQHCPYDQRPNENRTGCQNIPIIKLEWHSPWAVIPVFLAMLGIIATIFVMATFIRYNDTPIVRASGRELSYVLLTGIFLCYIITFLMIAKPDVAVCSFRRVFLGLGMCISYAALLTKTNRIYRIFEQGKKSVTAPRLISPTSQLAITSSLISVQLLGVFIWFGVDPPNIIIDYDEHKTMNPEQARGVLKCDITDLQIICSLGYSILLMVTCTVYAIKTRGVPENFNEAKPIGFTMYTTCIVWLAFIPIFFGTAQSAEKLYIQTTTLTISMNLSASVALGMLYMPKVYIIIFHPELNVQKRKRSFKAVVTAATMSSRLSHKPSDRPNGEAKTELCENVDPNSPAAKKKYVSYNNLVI
Sequence of Metabotropic glutamate receptor 7 (Rattus norvegicus) (P35400 whole entry): as above
Sequence of Metabotropic glutamate receptor 8 (O00222 whole entry): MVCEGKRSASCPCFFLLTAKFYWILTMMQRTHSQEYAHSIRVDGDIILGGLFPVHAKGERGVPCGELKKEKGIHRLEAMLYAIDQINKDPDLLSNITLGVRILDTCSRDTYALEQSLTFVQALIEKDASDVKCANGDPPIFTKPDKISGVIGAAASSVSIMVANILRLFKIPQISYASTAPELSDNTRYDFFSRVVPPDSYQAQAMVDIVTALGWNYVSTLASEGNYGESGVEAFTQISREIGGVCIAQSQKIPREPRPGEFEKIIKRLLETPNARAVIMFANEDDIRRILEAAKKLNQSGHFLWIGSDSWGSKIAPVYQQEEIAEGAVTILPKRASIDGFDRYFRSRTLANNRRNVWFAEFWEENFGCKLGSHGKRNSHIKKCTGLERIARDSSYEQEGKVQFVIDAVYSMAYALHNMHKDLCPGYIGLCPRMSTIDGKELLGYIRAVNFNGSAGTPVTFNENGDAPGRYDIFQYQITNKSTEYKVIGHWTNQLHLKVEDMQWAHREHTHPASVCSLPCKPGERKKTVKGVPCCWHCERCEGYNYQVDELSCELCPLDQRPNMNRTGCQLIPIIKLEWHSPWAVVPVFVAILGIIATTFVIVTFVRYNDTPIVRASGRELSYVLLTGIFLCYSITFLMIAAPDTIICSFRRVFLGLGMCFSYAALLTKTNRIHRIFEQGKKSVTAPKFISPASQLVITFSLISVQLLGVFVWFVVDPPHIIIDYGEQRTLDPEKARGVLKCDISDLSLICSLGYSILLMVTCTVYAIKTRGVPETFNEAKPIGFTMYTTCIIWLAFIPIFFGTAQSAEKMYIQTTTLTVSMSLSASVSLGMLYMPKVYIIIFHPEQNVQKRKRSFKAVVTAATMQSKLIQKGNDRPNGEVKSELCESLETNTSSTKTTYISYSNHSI
Sequence of Metabotropic glutamate receptor 4 (Q14833 whole entry): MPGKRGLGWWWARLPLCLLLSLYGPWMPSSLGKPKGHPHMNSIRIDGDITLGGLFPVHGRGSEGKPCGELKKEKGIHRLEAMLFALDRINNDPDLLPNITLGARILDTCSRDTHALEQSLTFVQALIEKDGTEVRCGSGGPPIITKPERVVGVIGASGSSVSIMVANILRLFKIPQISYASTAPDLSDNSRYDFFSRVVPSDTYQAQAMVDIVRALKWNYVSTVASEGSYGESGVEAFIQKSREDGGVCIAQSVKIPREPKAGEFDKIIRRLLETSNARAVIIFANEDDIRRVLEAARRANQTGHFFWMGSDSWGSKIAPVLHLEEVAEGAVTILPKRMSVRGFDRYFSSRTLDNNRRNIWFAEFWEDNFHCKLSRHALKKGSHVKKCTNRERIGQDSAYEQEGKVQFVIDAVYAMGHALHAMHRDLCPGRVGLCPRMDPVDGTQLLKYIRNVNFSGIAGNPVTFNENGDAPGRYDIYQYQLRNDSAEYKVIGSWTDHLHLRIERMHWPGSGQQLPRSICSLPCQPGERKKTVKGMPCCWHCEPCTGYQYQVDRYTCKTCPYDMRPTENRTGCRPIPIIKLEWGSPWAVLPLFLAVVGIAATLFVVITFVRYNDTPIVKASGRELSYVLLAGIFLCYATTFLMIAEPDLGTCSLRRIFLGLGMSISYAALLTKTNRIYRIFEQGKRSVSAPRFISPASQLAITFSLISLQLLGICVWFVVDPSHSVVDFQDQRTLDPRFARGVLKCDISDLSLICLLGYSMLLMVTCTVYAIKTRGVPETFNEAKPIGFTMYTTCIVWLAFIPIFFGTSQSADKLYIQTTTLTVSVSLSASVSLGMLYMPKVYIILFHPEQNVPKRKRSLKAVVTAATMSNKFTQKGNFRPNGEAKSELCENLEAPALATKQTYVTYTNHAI

With `CCOC(=O)c1cnc2c(OC)cccc2c1N1CCN(c2c(OC)cccc2OC)CC1` the IC50 [1] was 800 nM and the Activity [2, 10] was 11%.
`CCOC(=O)c1cnc2c(OC)cccc2c1N1CCN(c2ccccc2F)CC1` gave an IC50 [1] of 6100 nM and an Activity [2, 10] of 12%.
Work on `CCOC(=O)c1cnc2c(OC)cccc2c1N1CCN(c2nccnc2OC)CC1` yielded an IC50 [1] of 3000 nM and an Activity [2, 10] of 11%.
Work on `CCOC(=O)c1cnc2c(OC)cccc2c1N1CCN(c2ccccc2SC)CC1` yielded an IC50 [1] of 510 nM and an Activity [2, 10] of 4.7%.
In the case of `CCOC(=O)c1cnc2c(OC)cccc2c1-c1cnc(-c2ccccc2OC)c(OC)c1`, the IC50 [1] is reported as 350 nM, the Fu [3] is reported as 0.01 and the Fu [4] is reported as 0.04. For the same compound, the Activity [2, 10] was 3.6%, the Fu [5] was 0.04 and the Fu [6] was 0.01.
Compound `CCOC(=O)c1cnc2c(OC)cccc2c1C1CC2CC(C1)N2c1ccccc1OC` (stereo unspecified) has an IC50 [1] of over 10000 nM and an Activity [2, 10] of 41%.
Compound `CCOC(=O)c1cnc2c(OC)cccc2c1-c1cnc(-c2ccccc2OC)nc1` has an IC50 [1] of 2400 nM and an Activity [2, 10] of 12%.
`CCOC(=O)c1ccc2c(OC)cccc2c1N1CCN(c2ccccc2OC)CC1` gave an IC50 [1] of over 30000 nM.
`CCOC(=O)c1cnc2c(OC)cccc2c1N1CCN(c2ccccc2OC)C(C)C1` (racemic) showed an IC50 [1] of 1300 nM and an Activity [2, 10] of 8.6%.
With `CCOC(=O)c1cnc2c(OC)cccc2c1C1C2CC1CN(c1ccccc1OC)C2` (stereo unspecified) the IC50 [1] was over 30000 nM.
`CCOC(=O)c1cnc2c(OC)cccc2c1N(C)CCN(C)c1ccccc1OC` gave an IC50 [1] of 4400 nM and an Activity [2, 10] of 9.6%.
`CCOC(=O)c1cnc2c(OC)cccc2c1-c1ccc(-c2ccccc2OC)nc1` gave an IC50 [1] of 600 nM and an Activity [2, 10] of 6.5%.
Work on `CCOC(=O)c1cnc2c(OC)cc(OC)cc2c1N1CCN(c2ccccc2OC)CC1` yielded an IC50 [1] of 670 nM and an Activity [2, 10] of 3.9%.
In the case of `CCOC(=O)c1cnc2ccsc2c1N1CCN(c2ccccc2OC)CC1`, the IC50 [1] is reported as 4500 nM and the Activity [2, 10] is reported as 24%.
`CCOC(=O)c1cnc2c(OC)cccc2c1N1CCN(c2ccccc2OC)CC1` gave an IC50 [1] of 647 nM, an IC50 [7] of over 30000 nM and a Fu [8] of 0.018. For the same compound, the Activity [2, 10] was 5.6%, the Fu [6] was 0.016 and the IC50 [9] was over 30000 nM.
In the case of `CCOC(=O)c1cnc2ccccc2c1N1CCN(c2ccccc2OC)CC1`, the IC50 [1] is reported as over 30000 nM.
Compound `CCOC(=O)c1cnc2c(OC)cccc2c1N1CCN(c2cc(F)ccc2OC)CC1` has an IC50 [1] of 2100 nM and an Activity [2, 10] of 15%.
With `CCOC(=O)c1cnc2c(OC)cccc2c1C1CCN(c2ccccc2OC)CC1` the IC50 [1] was over 10000 nM and the Activity [2, 10] was 41%.
For `CCOC(=O)c1cnc2c(OC)cccc2c1N1CCN(c2cncs2)CC1`, the IC50 [1] was over 30000 nM.
In the case of `CCOC(=O)c1cnc2c(OC)cccc2c1N1CCN(c2ccccc2C#N)CC1`, the IC50 [1] is reported as 4200 nM and the Activity [2, 10] is reported as 14%.
`CCOC(=O)c1cnc2c(OC)cc(OC)cc2c1-c1ccc(-c2ccccc2OC)nc1` gave an IC50 [1] of 880 nM and an Activity [2, 10] of 3.5%.
`CCOC(=O)c1cnc2c(OC)cc(OC)cc2c1-c1ccc(-c2ccccc2OCC)nc1` gave an IC50 [1] of 810 nM and an Activity [2, 10] of 5%.
Compound `CCOC(=O)c1cnc2c(OC)cccc2c1N1CCN(c2ccnn2C)CC1` has an IC50 [1] of over 30000 nM.
With `CCOC(=O)c1cnc2c(OC)cccc2c1N1CCN(c2ccccc2OC(C)C)CC1` the IC50 [1] was 2300 nM and the Activity [2, 10] was 6.5%.
`CCOC(=O)c1cnc2c(OC)cccc2c1N1CCN(c2cccnc2OC)CC1` gave an IC50 [1] of 1500 nM and an Activity [2, 10] of 10%.
For `CCOC(=O)c1cnc2sccc2c1N1CCN(c2ccccc2OC)CC1`, the IC50 [1] was 4500 nM and the Activity [2, 10] was 26%.
With `CCOC(=O)c1cnc2c(OC)cccc2c1-c1ccc(-c2ccccc2SC)nc1` the IC50 [1] was 410 nM and the Activity [2, 10] was 5.6%.
Compound `CCOC(=O)c1cnc2c(OC)cccc2c1-c1ccc(-c2ccccc2OCC)nc1` has an IC50 [1] of 370 nM and an Activity [2, 10] of 6.3%.
`CCOC(=O)c1cnc2c(OC)cccc2c1N1CCN(c2cccs2)CC1` showed an IC50 [1] of over 30000 nM.
For `CCOC(=O)c1cnc2c(OC)cccc2c1N1CCN(c2ccccc2OC(F)(F)F)CC1`, the IC50 [1] was over 30000 nM.
`CCOC(=O)c1cnc2c(OC)cccc2c1-c1ccc(-c2ccccc2OC)cc1` showed an IC50 [1] of 2900 nM, a Fu [8] of under 0.001 and an Activity [2, 10] of 4.2%. For the same compound, the Fu [6] was under 0.001.
Work on `CCOC(=O)c1cnc2c(OC)cccc2c1-c1ccc(-c2ccccc2OC)cn1` yielded an IC50 [1] of 2800 nM and an Activity [2, 10] of 6.8%.
In the case of `CCOC(=O)c1cnc2c(OC)cccc2c1C1=CCN(c2ccccc2OC)CC1`, the IC50 [1] is reported as 3600 nM and the Activity [2, 10] is reported as 9.6%.
Compound `CCOC(=O)c1cnc2c(OC)cccc2c1-c1ccc(-c2ccccc2OC(C)C)nc1` has an IC50 [1] of 1500 nM and an Activity [2, 10] of 5.8%.
Compound `CCOC(=O)c1cnc2c(OC)cccc2c1N1CCN(c2ccccc2OCC)CC1` has an IC50 [1] of 5100 nM and an Activity [2, 10] of 8.7%.
For `CCOC(=O)c1cnc2c(OC)cccc2c1N1CC2CN(c3ccccc3OC)CC2C1` (stereo unspecified), the IC50 [1] was over 10000 nM and the Activity [2] was 57%.
`CCOC(=O)c1cnc2c(OC)cccc2c1-c1cnc(-c2ccccc2OC)cn1` gave an IC50 [1] of 540 nM and an Activity [2, 10] of 5.1%.
For `CCOC(=O)c1cnc2c(OC)cccc2c1N1CCN(c2ccccc2OC)CC1C` (racemic), the IC50 [1] was 1500 nM and the Activity [2, 10] was 6.1%.
For `CCOC(=O)c1cnc2c(OC)cccc2c1N1CCN(c2ccccc2Cl)CC1`, the IC50 [1] was over 30000 nM.
`CCOC(=O)c1cnc2c(OC)cccc2c1N1CCN(c2ccc(OC)cc2OC)CC1` showed an IC50 [1] of 1900 nM and an Activity [2, 10] of 9%.
In the case of `CCOC(=O)c1cnc2c(OC)cccc2c1-c1cc(F)c(-c2ccccc2OC)nc1OC`, the IC50 [1] is reported as 2100 nM and the Activity [2, 10] is reported as 24%.
`CCOC(=O)c1cnc2c(OC)cccc2c1N1CCN(c2ccccc2C)CC1` gave an IC50 [1] of over 10000 nM and an Activity [2, 10] of 41%.
With `CCOC(=O)c1cnc2c(OC)cccc2c1-c1ccn(Cc2ccccc2OC)c1` the IC50 [1] was 1200 nM and the Activity [2, 10] was 6.5%.
Compound `CCOC(=O)c1cnc2c(OC)cccc2c1N1CC2(CN(c3ccccc3OC)C2)C1` has an IC50 [1] of over 30000 nM.
`CCOC(=O)c1cnccc1N1CCN(c2ccccc2OC)CC1` gave an IC50 [1] of 4200 nM and an Activity [2, 10] of 13%.
